Results published in patent US11235976B2, “Nanocarbon-iron composite system as well as composition, preparation method and use thereof” (Chongqing Lummy Pharmaceutical Co., LTD, priority 2017, dated 2022).

What was measured:
[1] = test system: SKOV3 ovarian cancer cells; assay: Cell experiment, cell survival rate; assay type: cell-based; conditions: iron preparation alone 13.65 μg/mL, 48 h
Procedure: (§1) Cells growing in a log phase are collected, the concentration of the cell suspension is adjusted, 100 μL of cell suspension is added to each well and the cells are plated (edge wells are filled with sterile PBS) at a density of 1×10^3-10^4 cells/well. The cells are incubated for 24 hours at 37° C. under the condition of 5% CO2, a nanocarbon-iron solution having a concentration gradient (nanocarbon content: 125, 62.5, 15.63 and 3.91 μg/mL; and ferric ion content: 13.65, 6.83, 1.71 and 0.43 μg/mL) is added, and three sub-wells are set. Then the cells are incubated for 48 hours at 37° C. under the condition of 5% CO2. 10 μL of CCK8 solution is added to each well and then the cells are continuously incubated for 2 hours. The absorbance of each well is measured at OD=450 nm with the microplate reader. In addition, a negative control group, nanocarbon control groups having the same concentration and iron preparation control groups having the same concentration are set.
as §1, with “and 1” for “100”, “of a 6-well plate” for “and the cells are plated (edge wells are filled with sterile PBS)”, “3×10^4” for “1×10^3-10^4”, “1.71,” for “1.71 and”, “The” for “10 μL of CCK8 solution is added to each well and then the”, “trypsinized and counted.” for “continuously incubated for 2 hours. The absorbance of each well is measured at OD=450 nm with the microplate reader.”

[2] = test system: SMMC7721 liver cancer cells; assay: Cell experiment, cell survival rate; assay type: cell-based; conditions: SMMC-7721, 48 h
Procedure: as §1
as §1, with “and 1” for “100”, “of a 6-well plate” for “and the cells are plated (edge wells are filled with sterile PBS)”, “3×10^4” for “1×10^3-10^4”, “1.71,” for “1.71 and”, “The” for “10 μL of CCK8 solution is added to each well and then the”, “trypsinized and counted.” for “continuously incubated for 2 hours. The absorbance of each well is measured at OD=450 nm with the microplate reader.”

[3] = test system: TPC-1 thyroid cancer cells; assay: Cell experiment, cell survival rate; assay type: cell-based; conditions: 48 h
Procedure: as §1
as §1, with “and 1” for “100”, “of a 6-well plate” for “and the cells are plated (edge wells are filled with sterile PBS)”, “3×10^4” for “1×10^3-10^4”, “1.71,” for “1.71 and”, “The” for “10 μL of CCK8 solution is added to each well and then the”, “trypsinized and counted.” for “continuously incubated for 2 hours. The absorbance of each well is measured at OD=450 nm with the microplate reader.”

[4] = test system: murine liver cancer H22 cells; assay: Cell experiment, cell survival rate; assay type: cell-based; conditions: 48 h
Procedure: as §1
as §1, with “and 1” for “100”, “of a 6-well plate” for “and the cells are plated (edge wells are filled with sterile PBS)”, “3×10^4” for “1×10^3-10^4”, “1.71,” for “1.71 and”, “The” for “10 μL of CCK8 solution is added to each well and then the”, “trypsinized and counted.” for “continuously incubated for 2 hours. The absorbance of each well is measured at OD=450 nm with the microplate reader.”

[5] = test system: subcutaneous transplantation tumors of 9 types of cancer cells; assay: Tumor growth inhibition experiments, subcutaneous transplantation tumors; assay type: in vivo, mice; conditions: FIGS. 4-39
Procedure: Cells growing in a log phase are collected, the concentration of the cell suspension is adjusted to 3×10^7 cells/mL, and the cell suspension is inoculated subcutaneously into the right upper extremities of nude mice at the inoculation dosage of 0.1 mL (about 3×10^6 cells) per mouse. When the average tumor volume of the inoculated mice reaches 100 mm^3, the tumor-bearing mice are randomly divided into the following groups (8 nude mice per group): a negative control group (0.9% sodium chloride injection), a nanocarbon control group, an iron preparation control group, a nanocarbon-iron suspension experimental group, and a cis-platinum control group (intraperitoneal injection at the dosage of 5 mg/kg). The above various drugs are injected into the tumors. The tumor volume changes are recorded, and the formula for calculating the volume is Volume=(length×the square of width)/2.
Milky white and thick ascites is extracted from the H22 tumor-bearing mice, the concentration of the cell suspension is adjusted to be 3×10^7 cells/mL, 0.1 mL of cell suspension (about 3×10^6 cells) is inoculated subcutaneously into the right upper extremity of each of Kunming mice. When the average tumor volume of the inoculated mice reaches 100 mm^3, the tumor-bearing mice are randomly divided into the following groups (8 mice per group): a negative control group (0.9% sodium chloride injection), a nanocarbon control group, an iron preparation control group, a nanocarbon-iron suspension experimental group, and a cis-platinum control group (intraperitoneal injection at the dosage of 5 mg/kg). The above various drugs are injected into the tumors. The tumor volume changes are recorded, and the formula for calculating the volume is Volume=(length×the square of width)/2.

[6] = test system: H22 metastatic lymph nodes; assay: Lymph node metastasis inhibition experiment; assay type: in vivo, Kunming mouse; conditions: popliteal lymph nodes
Procedure: (§2) Milky white and thick ascites is extracted from the H22 tumor-bearing mice, the concentration is adjusted to be 3×10^7 cells/mL, 0.05 mL of cell suspension (about 1.5×10^6 cells) is inoculated subcutaneously into the left hind foot pads of each Kunming mouse, and thus a lymph node metastasis mouse model is obtained. The mice are treated when the diameter of the tumor reaches 6-8 mm and there is no ulcer and necrosis. The mice are randomly divided into four groups (10 mice per group): a negative control group (0.9% sodium chloride injection), a nanocarbon control group, an iron preparation control group and a nanocarbon-iron suspension experimental group. 10 days after inoculation, the mice are killed, and popliteal lymph nodes are collected, weighed and fixed for pathological examination.

[7] = test system: A549 metastatic lymph nodes; assay: Lymph node metastasis inhibition experiment; assay type: in vivo, nude mouse; conditions: popliteal lymph nodes
Procedure: as §2, with “Cells growing in a log phase are collected,” for “Milky white and thick ascites is extracted from the H22 tumor-bearing mice,”, “concentration of the cell suspension” for “concentration”, “to” for “to be”, “the” for “0.05 mL of”, “suspension” for “suspension (about 1.5×10^6 cells)”, “nude mouse at the inoculation volume of 0.05 mL (about 1.5×10^6 cells)” for “Kunming mouse,”

[8] = test system: HCT116 metastatic lymph nodes; assay: Lymph node metastasis inhibition experiment; assay type: in vivo, nude mouse; conditions: popliteal lymph nodes
Procedure: as §2, with “Cells growing in a log phase are collected,” for “Milky white and thick ascites is extracted from the H22 tumor-bearing mice,”, “concentration of the cell suspension” for “concentration”, “to” for “to be”, “the” for “0.05 mL of”, “suspension” for “suspension (about 1.5×10^6 cells)”, “nude mouse at the inoculation volume of 0.05 mL (about 1.5×10^6 cells)” for “Kunming mouse,”

[9] = test system: Hela metastatic lymph nodes; assay: Lymph node metastasis inhibition experiment; assay type: in vivo, nude mouse; conditions: popliteal lymph nodes
Procedure: as §2, with “Cells growing in a log phase are collected,” for “Milky white and thick ascites is extracted from the H22 tumor-bearing mice,”, “concentration of the cell suspension” for “concentration”, “to” for “to be”, “the” for “0.05 mL of”, “suspension” for “suspension (about 1.5×10^6 cells)”, “nude mouse at the inoculation volume of 0.05 mL (about 1.5×10^6 cells)” for “Kunming mouse,”

[10] = test system: MDA-MB-231 metastatic lymph nodes; assay: Lymph node metastasis inhibition experiment; assay type: in vivo, nude mouse; conditions: popliteal lymph nodes
Procedure: as §2, with “Cells growing in a log phase are collected,” for “Milky white and thick ascites is extracted from the H22 tumor-bearing mice,”, “concentration of the cell suspension” for “concentration”, “to” for “to be”, “the” for “0.05 mL of”, “suspension” for “suspension (about 1.5×10^6 cells)”, “nude mouse at the inoculation volume of 0.05 mL (about 1.5×10^6 cells)” for “Kunming mouse,”

[11] = test system: SGC-7901 metastatic lymph nodes; assay: Lymph node metastasis inhibition experiment; assay type: in vivo, nude mouse; conditions: popliteal lymph nodes
Procedure: as §2, with “Cells growing in a log phase are collected,” for “Milky white and thick ascites is extracted from the H22 tumor-bearing mice,”, “concentration of the cell suspension” for “concentration”, “to” for “to be”, “the” for “0.05 mL of”, “suspension” for “suspension (about 1.5×10^6 cells)”, “nude mouse at the inoculation volume of 0.05 mL (about 1.5×10^6 cells)” for “Kunming mouse,”

[12] = test system: SKOV3 metastatic lymph nodes; assay: Lymph node metastasis inhibition experiment; assay type: in vivo, nude mouse; conditions: popliteal lymph nodes
Procedure: as §2, with “Cells growing in a log phase are collected,” for “Milky white and thick ascites is extracted from the H22 tumor-bearing mice,”, “concentration of the cell suspension” for “concentration”, “to” for “to be”, “the” for “0.05 mL of”, “suspension” for “suspension (about 1.5×10^6 cells)”, “nude mouse at the inoculation volume of 0.05 mL (about 1.5×10^6 cells)” for “Kunming mouse,”

[13] = test system: SMMC-7721 metastatic lymph nodes; assay: Lymph node metastasis inhibition experiment; assay type: in vivo, nude mouse; conditions: popliteal lymph nodes
Procedure: as §2, with “Cells growing in a log phase are collected,” for “Milky white and thick ascites is extracted from the H22 tumor-bearing mice,”, “concentration of the cell suspension” for “concentration”, “to” for “to be”, “the” for “0.05 mL of”, “suspension” for “suspension (about 1.5×10^6 cells)”, “nude mouse at the inoculation volume of 0.05 mL (about 1.5×10^6 cells)” for “Kunming mouse,”

[14] = test system: TPC-1 metastatic lymph nodes; assay: Lymph node metastasis inhibition experiment; assay type: in vivo, nude mouse; conditions: popliteal lymph nodes
Procedure: as §2, with “Cells growing in a log phase are collected,” for “Milky white and thick ascites is extracted from the H22 tumor-bearing mice,”, “concentration of the cell suspension” for “concentration”, “to” for “to be”, “the” for “0.05 mL of”, “suspension” for “suspension (about 1.5×10^6 cells)”, “nude mouse at the inoculation volume of 0.05 mL (about 1.5×10^6 cells)” for “Kunming mouse,”

[15] = test system: lymph node metastasis of 9 types of tumor cells; assay: Lymph node metastasis inhibition experiment, summary; assay type: in vivo, mice
Procedure: as §2, with “Cells growing in a log phase are collected,” for “Milky white and thick ascites is extracted from the H22 tumor-bearing mice,”, “concentration of the cell suspension” for “concentration”, “to” for “to be”, “the” for “0.05 mL of”, “suspension” for “suspension (about 1.5×10^6 cells)”, “nude mouse at the inoculation volume of 0.05 mL (about 1.5×10^6 cells)” for “Kunming mouse,”
as §2

[16] = iron preparation alone 0.43 μg/mL
[17] = iron preparation alone 1.71 μg/mL
[18] = iron preparation alone 6.83 μg/mL
[19] = iron preparation alone 13.65 μg/mL

## ferrous sulfate
[1]
  Cell Survival Rate: 96.47%
[2]; [16]
  Cell Survival Rate: 100%
[2]; [17]
  Cell Survival Rate: 100%
[2]; [18]
  Cell Survival Rate: 100%
[2]; [19]
  Cell Survival Rate: 97.46%
[3]; [16]
  Cell Survival Rate: 100%
[3]; [17]
  Cell Survival Rate: 100%
[3]; [18]
  Cell Survival Rate: 98.75%
[3]; [19]
  Cell Survival Rate: 93.64%
[4]; [16]
  Cell Survival Rate: 100%
[4]; [17]
  Cell Survival Rate: 95.24%
[4]; [18]
  Cell Survival Rate: 97.16%
[4]; [19]
  Cell Survival Rate: 100%
[5]
  inhibition effect on growth of 9 types of tumors: do not have an inhibition effect
[6]
  Weight of Lymph Node: 44.27 ± 20.69 mg
[7]
  Weight of Lymph Node: 44.97 ± 16.53 mg
[8]
  Weight of Lymph Node: 48.12 ± 10.58 mg
[9]
  Weight of Lymph Node: 29.48 ± 6.46 mg
[10]
  Weight of Lymph Node: 40.18 ± 11.14 mg
[11]
  Weight of Lymph Node: 50.12 ± 20.94 mg
[12]
  Weight of Lymph Node: 35.62 ± 6.94 mg
[13]
  Weight of Lymph Node: 50.19 ± 18.73 mg
[14]
  Weight of Lymph Node: 35.71 ± 13.45 mg
[15]
  inhibition effect on the metastatic lymph nodes: do not have an inhibition effect
